Measurements reported in ChEMBL document CHEMBL1629422, “Synthesis and antimicrobial evaluation of some fused heterocyclic [1,2,4]triazolo[3,4-b][1,3,4]thiadiazole derivatives” (2010).
In brackets after ≈: the same amount, converted by molar mass.

How the values were obtained:
Format in all cases: functional
[1] = system: Enterococcus faecalis; experiment: Antimicrobial activity against Enterococcus faecalis ATCC 29212 after18 to 20 hrs by broth dilution method
[2] = system: Pseudomonas aeruginosa; experiment: Antimicrobial activity against Pseudomonas aeruginosa ATCC 27853 after18 to 20 hrs by broth dilution method
[3] = system: Bacillus cereus; experiment: Antimicrobial activity against Bacillus cereus ATCC 13061 after18 to 20 hrs by broth dilution method
[4] = system: Enterobacter cloacae; experiment: Antimicrobial activity against Enterobacter cloacae ATCC 49141 after18 to 20 hrs by broth dilution method
[5] = system: Candida albicans; experiment: Antimicrobial activity against Candida albicans ATCC 90028 after 48 hrs by broth dilution method; details: ATCC 90028, 48 h
[6] = system: Escherichia coli; experiment: Antimicrobial activity against Escherichia coli ATCC 25922 after18 to 20 hrs by broth dilution method
[7] = system: Staphylococcus epidermidis; experiment: Antimicrobial activity against Staphylococcus epidermidis ATCC 14990 after18 to 20 hrs by broth dilution method
[8] = system: Citrobacter freundii; experiment: Antimicrobial activity against Citrobacter freundii ATCC 8090 after18 to 20 hrs by broth dilution method
[9] = system: Staphylococcus aureus; experiment: Antimicrobial activity against Staphylococcus aureus ATCC 25923 after18 to 20 hrs by broth dilution method
[10] = system: Acinetobacter baumannii; experiment: Antimicrobial activity against Acinetobacter baumannii ATCC 19606 after18 to 20 hrs by broth dilution method

Compound | MIC [1] | MIC [2] | MIC [3] | MIC [4] | MIC [5] | MIC [6] | MIC [7] | MIC [8] | MIC [9] | MIC [10]
O=S(=O)(c1ccccc1)c1ccc(-c2nnc3sc(-c4ccc(Cl)c(Br)c4)nn23)cc1 | 128 µg/mL (≈ 241 µM) | 128 µg/mL (≈ 241 µM) | 256 µg/mL (≈ 481 µM) | 512 µg/mL (≈ 963 µM) | 512 µg/mL (≈ 963 µM) | 128 µg/mL (≈ 241 µM) | 128 µg/mL (≈ 241 µM) | 1020 µg/mL (≈ 1930 µM) | 256 µg/mL (≈ 481 µM) | 256 µg/mL (≈ 481 µM)
C[C@@H]1[C@H](O)[C@@H](C)/C=C/C=C/C=C/C=C/C=C/C=C/C=C/[C@H](O[C@@H]2O[C@H](C)[C@@H](O)[C@H](N)[C@@H]2O)C[C@@H]2O[C@](O)(C[C@@H](O)C[C@@H](O)[C@H](O)CC[C@@H](O)C[C@@H](O)CC(=O)O[C@H]1C)C[C@H](O)[C@H]2C(=O)O [AMPHOTERICIN B] | – | – | – | – | 2 µg/mL (≈ 2.16 µM) | – | – | – | – | –
C[C@H]1[C@H](NC(=O)/C(=N\OC(C)(C)C(=O)O)c2csc(N)n2)C(=O)N1S(=O)(=O)O [AZTREONAM] | – | 4 µg/mL (≈ 9.19 µM) | – | – | – | < 2 µg/mL | – | < 2 µg/mL | – | < 2 µg/mL
O=S(=O)(c1ccccc1)c1ccc(-c2nnc3sc(-c4ccc(Cl)cc4)nn23)cc1 | 512 µg/mL (≈ 1130 µM) | 512 µg/mL (≈ 1130 µM) | 1020 µg/mL (≈ 2260 µM) | 512 µg/mL (≈ 1130 µM) | 512 µg/mL (≈ 1130 µM) | 512 µg/mL (≈ 1130 µM) | 512 µg/mL (≈ 1130 µM) | 512 µg/mL (≈ 1130 µM) | 256 µg/mL (≈ 565 µM) | 512 µg/mL (≈ 1130 µM)
O=S(=O)(c1ccccc1)c1ccc(-c2nnc3sc(-c4ccc(Br)cc4)nn23)cc1 | 1020 µg/mL (≈ 2060 µM) | 512 µg/mL (≈ 1030 µM) | 1020 µg/mL (≈ 2060 µM) | 512 µg/mL (≈ 1030 µM) | 1020 µg/mL (≈ 2060 µM) | 512 µg/mL (≈ 1030 µM) | 1020 µg/mL (≈ 2060 µM) | 1020 µg/mL (≈ 2060 µM) | 512 µg/mL (≈ 1030 µM) | 1020 µg/mL (≈ 2060 µM)
Cc1ccc(Nc2nn3c(-c4ccc(S(=O)(=O)c5ccc(Br)cc5)cc4)nnc3s2)cc1 | 512 µg/mL (≈ 973 µM) | 512 µg/mL (≈ 973 µM) | 1020 µg/mL (≈ 1950 µM) | 512 µg/mL (≈ 973 µM) | 128 µg/mL (≈ 243 µM) | 256 µg/mL (≈ 486 µM) | 1020 µg/mL (≈ 1950 µM) | 1020 µg/mL (≈ 1950 µM) | 512 µg/mL (≈ 973 µM) | 1020 µg/mL (≈ 1950 µM)
O=S(=O)(c1ccccc1)c1ccc(-c2nnc3sc(-c4cc(O)c(O)c(O)c4)nn23)cc1 | 32 µg/mL (≈ 68.6 µM) | 128 µg/mL (≈ 274 µM) | 256 µg/mL (≈ 549 µM) | 512 µg/mL (≈ 1100 µM) | 512 µg/mL (≈ 1100 µM) | 256 µg/mL (≈ 549 µM) | 512 µg/mL (≈ 1100 µM) | 1020 µg/mL (≈ 2200 µM) | 512 µg/mL (≈ 1100 µM) | 1020 µg/mL (≈ 2200 µM)
O=S(=O)(c1ccccc1)c1ccc(-c2nnc3sc(O)nn23)cc1 | 128 µg/mL (≈ 357 µM) | 512 µg/mL (≈ 1430 µM) | 1020 µg/mL (≈ 2860 µM) | 256 µg/mL (≈ 714 µM) | 256 µg/mL (≈ 714 µM) | 256 µg/mL (≈ 714 µM) | 512 µg/mL (≈ 1430 µM) | 512 µg/mL (≈ 1430 µM) | 256 µg/mL (≈ 714 µM) | 128 µg/mL (≈ 357 µM)
COc1ccc(-c2nn3c(-c4ccc(S(=O)(=O)c5ccc(Br)cc5)cc4)nnc3s2)cc1 | 512 µg/mL (≈ 971 µM) | 512 µg/mL (≈ 971 µM) | 256 µg/mL (≈ 485 µM) | 1020 µg/mL (≈ 1940 µM) | 512 µg/mL (≈ 971 µM) | 256 µg/mL (≈ 485 µM) | 512 µg/mL (≈ 971 µM) | 512 µg/mL (≈ 971 µM) | 128 µg/mL (≈ 243 µM) | 256 µg/mL (≈ 485 µM)
Nc1ccc(-c2nn3c(-c4ccc(S(=O)(=O)c5ccccc5)cc4)nnc3s2)cc1 | 128 µg/mL (≈ 295 µM) | 256 µg/mL (≈ 591 µM) | 256 µg/mL (≈ 591 µM) | 256 µg/mL (≈ 591 µM) | 256 µg/mL (≈ 591 µM) | 256 µg/mL (≈ 591 µM) | 64 µg/mL (≈ 148 µM) | 256 µg/mL (≈ 591 µM) | 512 µg/mL (≈ 1180 µM) | 128 µg/mL (≈ 295 µM)
COc1ccc(-c2nn3c(-c4ccc(S(=O)(=O)c5ccccc5)cc4)nnc3s2)cc1 | 512 µg/mL (≈ 1140 µM) | 256 µg/mL (≈ 571 µM) | 512 µg/mL (≈ 1140 µM) | 512 µg/mL (≈ 1140 µM) | 512 µg/mL (≈ 1140 µM) | 512 µg/mL (≈ 1140 µM) | 512 µg/mL (≈ 1140 µM) | 512 µg/mL (≈ 1140 µM) | 256 µg/mL (≈ 571 µM) | 512 µg/mL (≈ 1140 µM)
O=S(=O)(c1ccccc1)c1ccc(-c2nnc3sc(Nc4ccc(Br)cc4)nn23)cc1 | 1020 µg/mL (≈ 2000 µM) | 512 µg/mL (≈ 999 µM) | 1020 µg/mL (≈ 2000 µM) | 512 µg/mL (≈ 999 µM) | 1020 µg/mL (≈ 2000 µM) | 256 µg/mL (≈ 500 µM) | 512 µg/mL (≈ 999 µM) | 1020 µg/mL (≈ 2000 µM) | 1020 µg/mL (≈ 2000 µM) | 512 µg/mL (≈ 999 µM)
O=S(=O)(c1ccc(Br)cc1)c1ccc(-c2nnc3sc(-c4ccc(Cl)c(Br)c4)nn23)cc1 | 32 µg/mL (≈ 52.4 µM) | 32 µg/mL (≈ 52.4 µM) | 128 µg/mL (≈ 210 µM) | 256 µg/mL (≈ 419 µM) | 256 µg/mL (≈ 419 µM) | 64 µg/mL (≈ 105 µM) | 32 µg/mL (≈ 52.4 µM) | 1020 µg/mL (≈ 1680 µM) | 64 µg/mL (≈ 105 µM) | 512 µg/mL (≈ 838 µM)
COc1ccc(Nc2nn3c(-c4ccc(S(=O)(=O)c5ccc(Br)cc5)cc4)nnc3s2)cc1 | 128 µg/mL (≈ 236 µM) | 256 µg/mL (≈ 472 µM) | 1020 µg/mL (≈ 1890 µM) | 256 µg/mL (≈ 472 µM) | 128 µg/mL (≈ 236 µM) | 256 µg/mL (≈ 472 µM) | 128 µg/mL (≈ 236 µM) | 256 µg/mL (≈ 472 µM) | 512 µg/mL (≈ 944 µM) | 128 µg/mL (≈ 236 µM)
NCc1ccc(-c2nn3c(-c4ccc(S(=O)(=O)c5ccc(Br)cc5)cc4)nnc3s2)cc1 | 512 µg/mL (≈ 973 µM) | 128 µg/mL (≈ 243 µM) | 256 µg/mL (≈ 486 µM) | 1020 µg/mL (≈ 1950 µM) | 512 µg/mL (≈ 973 µM) | 256 µg/mL (≈ 486 µM) | 1020 µg/mL (≈ 1950 µM) | 1020 µg/mL (≈ 1950 µM) | 512 µg/mL (≈ 973 µM) | 1020 µg/mL (≈ 1950 µM)
Nc1ccc(-c2nn3c(-c4ccc(S(=O)(=O)c5ccc(Br)cc5)cc4)nnc3s2)cc1 | 512 µg/mL (≈ 999 µM) | 512 µg/mL (≈ 999 µM) | 128 µg/mL (≈ 250 µM) | 1020 µg/mL (≈ 2000 µM) | 512 µg/mL (≈ 999 µM) | 256 µg/mL (≈ 500 µM) | 512 µg/mL (≈ 999 µM) | 512 µg/mL (≈ 999 µM) | 256 µg/mL (≈ 500 µM) | 1020 µg/mL (≈ 2000 µM)
COc1ccc(Nc2nn3c(-c4ccc(S(=O)(=O)c5ccccc5)cc4)nnc3s2)cc1 | 64 µg/mL (≈ 138 µM) | 256 µg/mL (≈ 552 µM) | 256 µg/mL (≈ 552 µM) | 256 µg/mL (≈ 552 µM) | 256 µg/mL (≈ 552 µM) | 256 µg/mL (≈ 552 µM) | 128 µg/mL (≈ 276 µM) | 256 µg/mL (≈ 552 µM) | 1020 µg/mL (≈ 2210 µM) | 128 µg/mL (≈ 276 µM)
O=S(=O)(c1ccc(Br)cc1)c1ccc(-c2nnc3sc(-c4ccc(Cl)cc4)nn23)cc1 | 64 µg/mL (≈ 120 µM) | 512 µg/mL (≈ 963 µM) | 256 µg/mL (≈ 481 µM) | 512 µg/mL (≈ 963 µM) | 1020 µg/mL (≈ 1930 µM) | 128 µg/mL (≈ 241 µM) | 128 µg/mL (≈ 241 µM) | 512 µg/mL (≈ 963 µM) | 128 µg/mL (≈ 241 µM) | 256 µg/mL (≈ 481 µM)
NCc1ccc(-c2nn3c(-c4ccc(S(=O)(=O)c5ccccc5)cc4)nnc3s2)cc1 | 512 µg/mL (≈ 1140 µM) | 256 µg/mL (≈ 572 µM) | 1020 µg/mL (≈ 2290 µM) | 512 µg/mL (≈ 1140 µM) | 512 µg/mL (≈ 1140 µM) | 256 µg/mL (≈ 572 µM) | 512 µg/mL (≈ 1140 µM) | 1020 µg/mL (≈ 2290 µM) | 512 µg/mL (≈ 1140 µM) | 1020 µg/mL (≈ 2290 µM)
O=S(=O)(c1ccc(Br)cc1)c1ccc(-c2nnc3sc(O)nn23)cc1 | 64 µg/mL (≈ 146 µM) | 256 µg/mL (≈ 585 µM) | 1020 µg/mL (≈ 2340 µM) | 256 µg/mL (≈ 585 µM) | 256 µg/mL (≈ 585 µM) | 256 µg/mL (≈ 585 µM) | 128 µg/mL (≈ 293 µM) | 256 µg/mL (≈ 585 µM) | 256 µg/mL (≈ 585 µM) | 256 µg/mL (≈ 585 µM)
CC1(C)S[C@@H]2[C@H](NC(=O)[C@H](N)c3ccccc3)C(=O)N2[C@H]1C(=O)O [AMPICILLIN] | < 2 µg/mL | – | < 2 µg/mL | – | – | – | < 2 µg/mL | – | < 2 µg/mL | –
